Non-standard residues stand in square brackets, D forms with d. Residues, ends and D or L forms follow the SMILES beside them. Nva = CCC[C@H](N)C(=O)O; Sar = CNCC(=O)O
Legend:
Assay type in all cases: functional
Mus musculus [1] = organism: Mus musculus; assay: Compound (10 ug/mL) was tested for their immunomodulatory activity in vitro using lymphocyte transformation test
Mus musculus [2] = organism: Mus musculus; assay: Compound (0.01 ug/mL) was tested for their immunomodulatory activity in vitro using lymphocyte transformation test
Mus musculus [3] = organism: Mus musculus; assay: Compound (0.10 ug/mL) was tested for their immunomodulatory activity in vitro using lymphocyte transformation test
Mus musculus [4] = organism: Mus musculus; assay: Compound (1.0 ug/mL) was tested for their immunomodulatory activity in vitro using lymphocyte transformation test
Mus musculus [5] = organism: Mus musculus; assay: Compound (10 ug/mL) was tested for their immunomodulatory activity in vitro using mixed lymphocyte reaction
Mus musculus [6] = organism: Mus musculus; assay: Compound (1.0 ug/mL) was tested for their immunomodulatory activity in vitro using mixed lymphocyte reaction
Mus musculus [7] = organism: Mus musculus; assay: Compound (0.10 ug/mL) was tested for their immunomodulatory activity in vitro using mixed lymphocyte reaction
Mus musculus [8] = organism: Mus musculus; assay: Compound (0.01 ug/mL) was tested for their immunomodulatory activity in vitro using mixed lymphocyte reaction

CCC[C@H](NC(=O)[C@@H](N)Cc1ccc(O)cc1)C(=O)N1CCC[C@H]1C(=O)NCC(=O)N[C@@H](Cc1ccccc1)C(=O)N1CCC[C@H]1C(=O)O (H-Y[Nva]PGFP-OH)
Stimulation index (Mus musculus [1]): 0.73 | Stimulation index (Mus musculus [2]): 0.86 | Stimulation index (Mus musculus [3]): 1.06 | Stimulation index (Mus musculus [4]): 1.15

CC(C)[C@H](NC(=O)[C@@H](N)Cc1ccc(O)cc1)C(=O)N1CCC[C@H]1C(=O)NCC(=O)N[C@@H](Cc1ccccc1)C(=O)N1CCC[C@H]1C(=O)O
Stimulation index (Mus musculus [5]): 1 | Stimulation index (Mus musculus [1]): 0.75 | Stimulation index (Mus musculus [6]): 0.85 | Stimulation index (Mus musculus [2]): 1.13 | Stimulation index (Mus musculus [7]): 0.79 | Stimulation index (Mus musculus [3]): 1.05 | Stimulation index (Mus musculus [8]): 0.72 | Stimulation index (Mus musculus [4]): 1.02

H-YVPGFP-NH2
Stimulation index (Mus musculus [1]): 0.84 | Stimulation index (Mus musculus [2]): 0.83 | Stimulation index (Mus musculus [3]): 0.85 | Stimulation index (Mus musculus [4]): 1.1

CC(C)[C@H](NC(=O)[C@@H](N)Cc1ccc(O)cc1)C(=O)N1CCC[C@H]1C(=O)N(C)CC(=O)N[C@@H](Cc1ccccc1)C(=O)N1CCC[C@H]1C(=O)O (H-YVP[Sar]FP-OH)
Stimulation index (Mus musculus [1]): 0.96 | Stimulation index (Mus musculus [2]): 1.41 | Stimulation index (Mus musculus [3]): 1.21 | Stimulation index (Mus musculus [4]): 1.37

CC(C)[C@H](NC(=O)[C@@H](N)Cc1ccc(O)cc1)C(=O)N1CCCC1C(=O)NCC(=O)NC(Cc1ccccc1)C(=O)N1CCCC1C(=O)O (single isomer, unassigned; form 2)
Stimulation index (Mus musculus [5]): 1 | Stimulation index (Mus musculus [1]): 1.4 | Stimulation index (Mus musculus [6]): 1.31 | Stimulation index (Mus musculus [2]): 0.97 | Stimulation index (Mus musculus [7]): 0.9 | Stimulation index (Mus musculus [3]): 1.29 | Stimulation index (Mus musculus [8]): 0.96 | Stimulation index (Mus musculus [4]): 1.17

CC(C)C[C@H](NC(=O)C1CCCN1C(=O)[C@@H](NC(=O)C(N)Cc1ccc(O)cc1)C(C)C)C(=O)N[C@@H](Cc1ccccc1)C(=O)N1CCCC1C(=O)O (single isomer, unassigned; form 2)
Stimulation index (Mus musculus [1]): 0.95 | Stimulation index (Mus musculus [2]): 0.78 | Stimulation index (Mus musculus [3]): 0.86 | Stimulation index (Mus musculus [4]): 1.27

CC(C)C[C@H](NC(=O)C1CCCN1C(=O)[C@@H](NC(=O)C(N)Cc1ccc(O)cc1)C(C)C)C(=O)N[C@@H](Cc1ccccc1)C(=O)N1CCCC1C(=O)O (single isomer, unassigned; form 1)
Stimulation index (Mus musculus [1]): 0.82 | Stimulation index (Mus musculus [2]): 1.1 | Stimulation index (Mus musculus [3]): 1.08 | Stimulation index (Mus musculus [4]): 0.88

CC(C)[C@H](NC(=O)[C@@H](N)Cc1ccc(O)cc1)C(=O)N1CCCC1C(=O)NCC(=O)NC(Cc1ccccc1)C(=O)N1CCCC1C(=O)O (single isomer, unassigned; form 1)
Stimulation index (Mus musculus [1]): 1.05 | Stimulation index (Mus musculus [2]): 0.89 | Stimulation index (Mus musculus [3]): 1.02 | Stimulation index (Mus musculus [4]): 0.96

CC(C)[C@H](NC(=O)[C@@H](N)Cc1ccc(O)cc1)C(=O)N1CCC[C@H]1C(=O)NCC(=O)N[C@@H](Cc1ccccc1)C(=O)N(C)CC(=O)O (H-YVPGF[Sar]-OH)
Stimulation index (Mus musculus [5]): 0.92 | Stimulation index (Mus musculus [1]): 1.6 | Stimulation index (Mus musculus [6]): 0.72 | Stimulation index (Mus musculus [2]): 0.83 | Stimulation index (Mus musculus [7]): 0.8 | Stimulation index (Mus musculus [3]): 0.61 | Stimulation index (Mus musculus [8]): 0.71 | Stimulation index (Mus musculus [4]): 1.9

C[C@]12C=CC(=O)C=C1CCC1[C@@H]2[C@@H](O)C[C@@]2(C)[C@H]1CC[C@]2(O)C(=O)CO (single isomer, unassigned) [PREDNISOLONE]
Stimulation index (Mus musculus [7]): 0.3

CC(C)C[C@H](NC(=O)CN(C)C(=O)[C@@H](NC(=O)[C@@H](N)Cc1ccc(O)cc1)C(C)C)C(=O)N[C@@H](Cc1ccccc1)C(=O)N1CCCC1C(=O)O (single isomer, unassigned)
Stimulation index (Mus musculus [1]): 1.12 | Stimulation index (Mus musculus [2]): 0.88 | Stimulation index (Mus musculus [3]): 0.97 | Stimulation index (Mus musculus [4]): 1.24

CC(C)C[C@H](NC(=O)[C@@H]1CCCN1C(=O)[C@@H](NC(=O)[C@@H](N)Cc1ccc(O)cc1)C(C)C)C(=O)N[C@@H](Cc1ccccc1)C(=O)N(C)CC(=O)O (H-YVPLF[Sar]-OH)
Stimulation index (Mus musculus [1]): 1.2 | Stimulation index (Mus musculus [2]): 0.9 | Stimulation index (Mus musculus [3]): 0.86 | Stimulation index (Mus musculus [4]): 1.21

H-YLPGFP-OH
Stimulation index (Mus musculus [5]): 1.24 | Stimulation index (Mus musculus [1]): 0.59 | Stimulation index (Mus musculus [6]): 1.2 | Stimulation index (Mus musculus [2]): 0.75 | Stimulation index (Mus musculus [7]): 0.5 | Stimulation index (Mus musculus [3]): 0.64 | Stimulation index (Mus musculus [8]): 0.63 | Stimulation index (Mus musculus [4]): 0.62
